# Earlier results in patent publication US6991777B2, “Methods for in vivo evaluation of physiological conditions and/or organ or system function including methods to evaluate cardiopulmonary disorders such as chronic heart failure using polarized 129 Xe” (Medi-Physics, Inc., priority 2001, dated 2006).
# Experiments:
# [1] = dogs, whole lung
# [2] = after inhalation into the lungs
structure (smiles),measurement,setting,value
"[Xe] [polarized ^129Xe, Xenon-129]","time constant τ (uptake and/or dissolved gas-exchange transit time), blood compartment",[1]; blood compartment,~70 ms
same,"time constant τ (uptake and/or dissolved gas-exchange transit time), tissue compartment",[1]; tissue compartment,about 61 ms
same,diffusion constant of xenon in water,,about 2×10^−5 cm^2/s
same,fraction of inhaled gas that transits into the pulmonary blood,[2],roughly 0.3 % per/second
same,time until Xe begins to dissolve into the pulmonary blood stream,[2],under 100 ms
